From patent US4361703A, “Para-amino(or nitro)phenyl N-acetylaminothioalkanoates” (priority 1977, dated 1982)
Read-outs that look alike come from different tables or passages of the source.

Experiments:
[1] = tested on: albino rats (Charles River CD-1 COBS); assay: Acute oral toxicity in rats; format: in vivo
Procedure: (§1) (F)--Investigation of Acute Oral Toxicity in Rats
(§2) The investigation was carried out upon groups of 10 male and 10 female albino rats (Charles River CD-1 COBS) of 80-100 g body weight. […] Before the experiment they were fasted overnight, with water ad libitum. NAPA and Compound A were then administered orally by oesophageal intubation as suspensions (continuously shaken with an electromagnetic agitator) in 1% gum arabic at a volume of 2 ml/100 g body weight, and at dose levels of 1, 2, 4 and 8 g/kg. A control group received orally, under the same experimental conditions, merely 2 ml/100 g of the suspension vehicle. The rats were then kept under observation during seven days, while their behaviour patterns were observed and the mortality recorded

[2] = Acute oral toxicity in rats; format: in vivo; conditions: rat, in vivo; for mortality at 144 h / mortality at 48 h / mortality at 72 h / mortality at 96 h / mortality at 120 h / mortality at 168 h / mortality at 24 h: po; for mortality at 144 h: 6 Days
Procedure: as §1, §2

in vivo [3] = conditions: mouse, in vivo, po
Procedure: (E)--Investigation of Acute Oral Toxicity in Mice
Charles River (CD-1 COBS) albino mice, 20-22 g in weight, were kept for some days in an air-conditioned animal house and fed with a standard diet (sterile VAR granules). They were fasted overnight before experiment, with water ad libitum. 15 Male mice and 15 female mice were used for each experiment.
N-Acetyl-para-aminophenol (NAPA) and N-acetyl-para-aminophenyl N'-acetyl-D,L-methionate (Compound A) were then administered to the mice, orally, as a suspension (shaken continuously with an electromagnetic agitator) in 5% gum arabic at a volume of 0.02 ml/g, either individually or in variously proportioned mixtures and at different dose levels, as shown in Table VII below.
A control group received only the 5% gum arabic vehicle.

in vivo [4] = conditions: mouse, po
Procedure: (§3) (A)--Investigation of Serum Concentrations in Mice
(§4) 36 Charles River COBS mice (18 males and 18 females) weighing 30 g each were deprived of food for 16 hours before the trial but were given their usual drinking water. Three groups, each containing 6 males and 6 females, received a dosage of 1 ml/100 g body weight per mouse, orally by stomach tube, of a suspension in 1% gum tragacanth of respectively:
(§5) Group X: 500 mg/kg of N-acetyl-para-aminophenol
(§6) A blood sample was taken by throat-slitting from one male and one female from each Group at each study time, i.e. 1/2, 1, 2, 4 and 24 hours after the oral administration.
(§7) At times 1/2, 1, 2 and 4 hours, each serum sample was divided into three 0.1 ml trial samples for the following three determinations:
This determination was carried out by direct extraction, with no prior hydrolysis, according to an adaptation of the above-mentioned method.

[5] = tested on: yeast-inflamed hind-paw pain-threshold; assay: Analgesic activity, Randall-Selitto test in rats; format: in vivo, female Charles River rats
Procedure: (C)--Investigation of Analgesic Activity in Rats
A control group received only the gum tragacanth vehicle.
In order to evaluate the effect of the treatment upon pain-thresholds, pressure was applied both to the injected hind-paw and to the other non-injected hind-paw. The pain-threshold was noted as the pressure at which the rat flinched, measured using an Ugo Basile "Analgesimeter" for both hind-paws of each rat at intervals of 1 hour, 3 hours, 5 hours and 22 hours after the administration, and expressed as the percentage of the pain-threshold pressure for the injected (and thus inflamed) hind-paw as against the non-injected (and thus healthy) hind-paw.

[6] = mouse, in vivo, po
Procedure: as §3, §4, §5, §6, §7

[7] = 1000 mg/kg, 1 g/kg oral, 10 F, read-out: Percentage Mortality
[8] = 1000 mg/kg, 1 g/kg oral, 10 M, read-out: Percentage Mortality
[9] = 1000 mg/kg, 1 g/kg oral, M & F, read-out: Percentage Mortality
[10] = 2000 mg/kg, 2 g/kg oral, 10 F, read-out: Percentage Mortality
[11] = 2000 mg/kg, 2 g/kg oral, 10 M, read-out: Percentage Mortality
[12] = 2000 mg/kg, 2 g/kg oral, M & F, read-out: Percentage Mortality
[13] = 4000 mg/kg, 4 g/kg oral, 10 F, read-out: Percentage Mortality
[14] = 4000 mg/kg, 4 g/kg oral, 10 M, read-out: Percentage Mortality
[15] = 4000 mg/kg, 4 g/kg oral, M & F, read-out: Percentage Mortality
[16] = 4000 mg/kg, Percentage Mortality
[17] = 8000 mg/kg, 8 g/kg oral, 10 F, read-out: Percentage Mortality
[18] = 8000 mg/kg, 8 g/kg oral, 10 M, read-out: Percentage Mortality
[19] = 8000 mg/kg, 8 g/kg oral, M & F, read-out: Percentage Mortality
[20] = 8000 mg/kg, Percentage Mortality

Structure (SMILES): CC(=O)Nc1ccc(O)cc1 [NAPA, N-acetyl-para-aminophenol]
- time of first deaths ([1]; 8 g/kg oral, rats): eight hours after the administration at 8 g/kg dose level
- mortality (in words) ([1]; oral, rats, 1-8 g/kg): Heavy mortality
- Percentage Mortality ([1]; rat, in vivo, po, 8000 mg/kg, 24 h): 95 Percentage
- mortality at 144 h [2, 7]: 0%
- mortality at 48 h [2, 7]: 0%
- mortality at 72 h ([2]; 1000 mg/kg, 1 g/kg oral, 10 M, 3 Days, read-out: Percentage Mortality): 10%
- mortality at 96 h ([2]; 1000 mg/kg, 1 g/kg oral, 10 M, 4 Days, read-out: Percentage Mortality): 10%
- mortality at 120 h ([2]; 1000 mg/kg, 1 g/kg oral, 10 M, 5 Days, read-out: Percentage Mortality): 10%
- mortality at 144 h [2, 8]: 10%
- mortality at 168 h ([2]; 1000 mg/kg, 1 g/kg oral, 10 M, 7 Days, read-out: Percentage Mortality): 10%
- mortality at 24 h ([2]; 1000 mg/kg, 1 g/kg oral, 10 M, 24 Hours, read-out: Percentage Mortality): 10%
- mortality at 48 h [2, 8]: 10%
- mortality at 120 h ([2]; 1000 mg/kg, 1 g/kg oral, M & F, 5 Days, read-out: Percentage Mortality): 5%
- mortality at 144 h [2, 9]: 5%
- mortality at 48 h [2, 9]: 5%
- mortality at 120 h ([2]; 1000 mg/kg, Percentage Mortality): 0%
- mortality at 144 h [2, 10]: 0%
- mortality at 48 h [2, 10]: 0%
- mortality at 72 h ([2]; 2000 mg/kg, 2 g/kg oral, 10 M, 3 Days, read-out: Percentage Mortality): 10%
- mortality at 96 h ([2]; 2000 mg/kg, 2 g/kg oral, 10 M, 4 Days, read-out: Percentage Mortality): 10%
- mortality at 120 h ([2]; 2000 mg/kg, 2 g/kg oral, 10 M, 5 Days, read-out: Percentage Mortality): 10%
- mortality at 144 h [2, 11]: 10%
- mortality at 168 h ([2]; 2000 mg/kg, 2 g/kg oral, 10 M, 7 Days, read-out: Percentage Mortality): 10%
- mortality at 24 h ([2]; 2000 mg/kg, 2 g/kg oral, 10 M, 24 Hours, read-out: Percentage Mortality): 10%
- mortality at 48 h [2, 11]: 10%
- mortality at 120 h ([2]; 2000 mg/kg, 2 g/kg oral, M & F, 5 Days, read-out: Percentage Mortality): 5%
- mortality at 144 h [2, 12]: 5%
- mortality at 48 h [2, 12]: 5%
- mortality at 120 h ([2]; 2000 mg/kg, Percentage Mortality): 0%
- mortality at 144 h [2, 13]: 70%
- mortality at 168 h ([2]; 4000 mg/kg, 4 g/kg oral, 10 F, 7 Days, read-out: Percentage Mortality): 70%
- mortality at 48 h [2, 13]: 70%
- mortality at 72 h ([2]; 4000 mg/kg, 4 g/kg oral, 10 M, 3 Days, read-out: Percentage Mortality): 90%
- mortality at 96 h ([2]; 4000 mg/kg, 4 g/kg oral, 10 M, 4 Days, read-out: Percentage Mortality): 90%
- mortality at 120 h ([2]; 4000 mg/kg, 4 g/kg oral, 10 M, 5 Days, read-out: Percentage Mortality): 90%
- mortality at 144 h [2, 14]: 90%
- mortality at 168 h ([2]; 4000 mg/kg, 4 g/kg oral, 10 M, 7 Days, read-out: Percentage Mortality): 90%
- mortality at 24 h ([2]; 4000 mg/kg, 4 g/kg oral, 10 M, 24 Hours, read-out: Percentage Mortality): 90%
- mortality at 48 h [2, 14]: 90%
- mortality at 144 h [2, 15]: 80%
- mortality at 48 h [2, 15]: 80%
- mortality at 24 h [2, 16]: 70%
- mortality at 72 h [2, 16]: 70%
- mortality at 96 h [2, 16]: 70%
- mortality at 120 h [2, 16]: 70%
- mortality at 168 h [2, 16]: 80%
- mortality at 144 h [2, 17]: 100%
- mortality at 48 h [2, 17]: 100%
- mortality at 72 h ([2]; 8000 mg/kg, 8 g/kg oral, 10 M, 3 Days, read-out: Percentage Mortality): 100%
- mortality at 96 h ([2]; 8000 mg/kg, 8 g/kg oral, 10 M, 4 Days, read-out: Percentage Mortality): 100%
- mortality at 120 h ([2]; 8000 mg/kg, 8 g/kg oral, 10 M, 5 Days, read-out: Percentage Mortality): 100%
- mortality at 144 h [2, 18]: 100%
- mortality at 168 h ([2]; 8000 mg/kg, 8 g/kg oral, 10 M, 7 Days, read-out: Percentage Mortality): 100%
- mortality at 24 h ([2]; 8000 mg/kg, 8 g/kg oral, 10 M, 24 Hours, read-out: Percentage Mortality): 90%
- mortality at 48 h [2, 18]: 100%
- mortality at 144 h [2, 19]: 100%
- mortality at 48 h [2, 19]: 100%
- mortality at 24 h [2, 20]: 100%
- mortality at 72 h [2, 20]: 100%
- mortality at 96 h [2, 20]: 100%
- mortality at 120 h [2, 20]: 100%
- mortality at 168 h [2, 20]: 100%
- LD50 at 24 h ([2]; oral, rats, Miller and Tainter method): 3100 ± 500 mg/kg
- LD50 at 168 h ([2]; oral, rats, Miller and Tainter method, read-out: LD50 (7 days)): 2850 ± 400 mg/kg
- LD50 at 24 h (in vivo [3]): 730 ± 65 mg/kg
- LD50 at 168 h (in vivo [3]): 690 ± 65 mg/kg
- concentration at 2 h (in vivo [4]; 500 mg/kg, Serum "free NAPA"): 97000 ng/mL
- concentration at 4 h (in vivo [4]; 500 mg/kg, Serum "free NAPA"): 32000 ng/mL
- concentration at 4 h (in vivo [4]; 1073 mg/kg): 32000 ng/mL
- Percentage Pain-Threshold (injected vs non-injected paw) ([5]; 1 millimole/kg oral (NAPA 151, A 324 mg/kg), 1 hr. (3.5 hrs. from yeast)): 45 ± 3.5 Percentage
- Percentage Pain-Threshold (injected vs non-injected paw) ([5]; 1 millimole/kg oral (NAPA 151, A 324 mg/kg), 3 hrs. (5.5 hrs. from yeast)): 48 ± 4.1 Percentage
- Percentage Pain-Threshold (injected vs non-injected paw) ([5]; 1 millimole/kg oral (NAPA 151, A 324 mg/kg), 5 hrs. (7.5 hrs. from yeast)): 47 ± 1.7 Percentage
- Percentage Pain-Threshold (injected vs non-injected paw) ([5]; 1 millimole/kg oral (NAPA 151, A 324 mg/kg), 22 hrs. (24.5 hrs. from yeast)): 43 ± 3.4 Percentage
- Percentage Pain-Threshold (injected vs non-injected paw) ([5]; 2 millimoles/kg oral (NAPA 302, A 648 mg/kg), 1 hr. (3.5 hrs. from yeast)): 50 ± 4.2 Percentage
- Percentage Pain-Threshold (injected vs non-injected paw) ([5]; 2 millimoles/kg oral (NAPA 302, A 648 mg/kg), 3 hrs. (5.5 hrs. from yeast)): 54 ± 4.0 Percentage
- Percentage Pain-Threshold (injected vs non-injected paw) ([5]; 2 millimoles/kg oral (NAPA 302, A 648 mg/kg), 5 hrs. (7.5 hrs. from yeast)): 53 ±3.9 Percentage
- Percentage Pain-Threshold (injected vs non-injected paw) ([5]; 2 millimoles/kg oral (NAPA 302, A 648 mg/kg), 22 hrs. (24.5 hrs. from yeast)): 54 ± 4.7 Percentage
- P of pain-threshold (t-test versus control) ([5]; 2 millimoles/kg oral, 3 hrs.): < 0.05
- serum "total" or "enzymatic" NAPA profile [6]: slowly decreases but remains high up to 4 hours after oral administration
